The text below walks through data of patent publication US12637427B2, “ALDH-2 inhibitor compounds and methods of use” (Amygdala Neurosciences, Inc., priority 2022, dated 2026).

Some results are limits rather than exact numbers.

The target in one data set is T1, recombinant human ALDH-3 (Homo sapiens, UniProt P30838).
T1 sequence (P30838 1-453): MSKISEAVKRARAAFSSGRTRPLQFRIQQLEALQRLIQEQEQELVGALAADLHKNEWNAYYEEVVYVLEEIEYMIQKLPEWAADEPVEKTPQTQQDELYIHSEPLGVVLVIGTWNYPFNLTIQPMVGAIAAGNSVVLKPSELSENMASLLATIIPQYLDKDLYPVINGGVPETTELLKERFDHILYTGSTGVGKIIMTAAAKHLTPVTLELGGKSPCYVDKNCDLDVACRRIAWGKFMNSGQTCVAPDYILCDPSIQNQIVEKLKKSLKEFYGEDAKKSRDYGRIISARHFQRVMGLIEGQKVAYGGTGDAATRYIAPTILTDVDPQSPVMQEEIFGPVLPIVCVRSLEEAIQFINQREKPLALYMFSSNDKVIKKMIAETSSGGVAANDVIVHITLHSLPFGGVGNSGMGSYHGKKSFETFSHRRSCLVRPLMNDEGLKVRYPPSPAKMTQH
Nature of the data set: ALDH-3 inhibition assay. Conditions: 60 min pre-incubation; 10 μM = highest concentration tested; read-out: Enzymatic Assays IC50 ALDH-3. It is filed as biochemical.

The target in a further data set is T2, MAO-A (Homo sapiens, UniProt P21397).
T2 sequence (P21397 1-527): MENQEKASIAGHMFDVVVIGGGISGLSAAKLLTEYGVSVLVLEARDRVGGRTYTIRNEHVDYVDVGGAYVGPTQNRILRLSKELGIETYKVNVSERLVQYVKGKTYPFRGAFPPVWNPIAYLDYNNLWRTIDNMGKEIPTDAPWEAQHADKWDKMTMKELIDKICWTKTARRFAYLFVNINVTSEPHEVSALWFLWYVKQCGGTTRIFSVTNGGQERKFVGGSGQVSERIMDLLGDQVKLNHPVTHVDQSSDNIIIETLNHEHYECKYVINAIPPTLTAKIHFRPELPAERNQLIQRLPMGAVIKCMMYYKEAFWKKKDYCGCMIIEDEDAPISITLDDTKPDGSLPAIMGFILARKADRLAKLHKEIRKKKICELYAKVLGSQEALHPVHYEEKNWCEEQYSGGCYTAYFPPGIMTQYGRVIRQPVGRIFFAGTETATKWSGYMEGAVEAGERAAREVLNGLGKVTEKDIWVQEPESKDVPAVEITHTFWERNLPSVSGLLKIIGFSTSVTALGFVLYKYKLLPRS
Put plainly: MAO-A inhibition assay. It counts as biochemical. The settings on record: 20 min pre-incubation; 10 μM = highest concentration tested; read-out: Enzymatic Assays IC50 MAO-A. The procedure:
(§1) D. MAO-A and MAO-B inhibition assays: MAO assays included luminogenic MAO substrate, reaction buffers, Luciferin Detection, and a reconstitution buffer with esterase. The MAO reaction mixture used in the assay included microsome contained MAO-A (2 μg) or MAO-B (10 μg), 160 μM substrate for MAO-A or 16 μM substrate for MAO-B, MAO-A buffer (100 mM Hepes buffer, pH 7.5, 5% glycerol) or MAO-B buffer (100 mM Hepes, pH 7.5, 5% glycerol, 10% dimethyl sulfoxide) in a final volume of 30 μL. After 20 minutes of pre-incubation of the MAO-A or MAO-B enzyme with the test ALDH-2 inhibitor compound, the reaction was initiated by adding enzyme substrate and the […] reaction was allowed to proceed for 60 minutes. Reconstituted Luciferin Detection Reagent (30 μL) was then added is added to simultaneously stop the MAO reaction and convert the methyl ester derivative to luciferin and produce light. The amount of light produced is directly proportional to the activity of MAO. The mixtures were further incubated for 20 minutes and activity of the enzyme was determined using Perkin-Elmer Envision Reader.

For a further data set, the target named is T3, MAO-B (Homo sapiens, UniProt P27338).
T3 sequence (P27338 1-520): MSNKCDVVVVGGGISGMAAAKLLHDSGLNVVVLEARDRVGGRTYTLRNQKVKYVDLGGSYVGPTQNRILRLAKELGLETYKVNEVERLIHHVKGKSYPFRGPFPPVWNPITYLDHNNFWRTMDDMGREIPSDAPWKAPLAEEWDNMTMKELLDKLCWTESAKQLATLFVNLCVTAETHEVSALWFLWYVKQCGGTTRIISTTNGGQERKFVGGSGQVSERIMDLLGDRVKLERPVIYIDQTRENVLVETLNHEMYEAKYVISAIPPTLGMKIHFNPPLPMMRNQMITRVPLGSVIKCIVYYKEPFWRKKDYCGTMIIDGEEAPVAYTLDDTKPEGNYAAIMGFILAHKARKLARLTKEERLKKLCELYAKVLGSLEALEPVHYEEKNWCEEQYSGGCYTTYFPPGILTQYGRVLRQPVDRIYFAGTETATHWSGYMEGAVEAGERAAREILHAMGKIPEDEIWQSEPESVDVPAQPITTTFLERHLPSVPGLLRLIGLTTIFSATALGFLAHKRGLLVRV
Put plainly: MAO-B inhibition assay. It counts as biochemical. The settings on record: 20 min pre-incubation; 10 μM = highest concentration tested; read-out: Enzymatic Assays IC50 MAO-B. The procedure:
as §1

The test system of a further data set is HepaRG spheroids. Put plainly: HepaRG 3D spheroid assay. It is filed as cell-based. The settings on record: for Ratio MEC to ALDH2: HepaRG spheroid MEC divided by ALDH-2 IC50; for HepaRG 3D Spheroid MEC: minimum effective concentration crossing vehicle control threshold of cell health marker, 100 μM = highest concentration tested. An excerpt: See e.g., Walker et al., “The evolution of strategies to minimise the risk of human drug-induced liver injury (DILI) in drug discovery and development,” (2020) Archives of Toxicology, Vol. 94: 2559-2585, which is hereby incorporated by reference herein in its entirety. […] In applying the HepaRG spheroid assay analysis to determining the hepatoxic liability of ALDH-2 inhibitor compounds, consideration is made of the binding to plasma protein and the limitations to CNS penetration due to the blood-brain barrier.
E. HepaRG® 3D spheroid assay: The HepaRG 3D spheroid assay is described in Walker et al., “The evolution of strategies to minimise the risk of human drug-induced liver injury (DILI) in drug discovery and development,” (2020) Archives of Toxicology, Vol. 94: 2559-2585. Briefly, HepaRG® cells were seeded into ultra-low adhesion 96-well black walled clear bottomed spheroid microplates. […] At the end of the incubation period, the spheroids were loaded with the relevant dye/antibody for each cell health marker (spheroid count, spheroid size, DNA structure, mitochondrial mass, mitochondrial membrane potential, oxidative stress, glutathione content, and cellular ATP). The plates were then scanned using an automated fluorescent cellular imager, ArrayScan® (Thermo Scientific Cellomics).

Protocol for recombinant human ALDH-3: ALDH-3 inhibition assay: The ALDH-3 reaction mixture used in the assay contained 200 μM benzaldehyde, 2.5 mM NAD+, 20 mM NaCl, 10 mM MgCl2, and 10 nM recombinant human ALDH-3 in 50 mM Hepes buffer, pH 7.5 in a final volume of 10 μL using 384-well Corning 3820 plates. After 60 min of pre-incubation of the test ALDH-2 inhibitor compound with ALDH-3, the reaction was started by adding NAD+ and benzaldehyde and the assay reaction mixture was allowed to proceed for 60 minutes. Activity of the ALDH-3 enzyme was determined by monitoring NADH formation using Perkin-Elmer Envision Reader with excitation and emission wavelengths set at 340 and 460 nm, respectively.

For `Cc1cccc(Cl)c1C(=O)NCc1ccc(-c2cccc(=O)[nH]2)cc1` [(1a), 2-Chloro-6-methyl-N-(4-(6-oxo-1,6-dihydropyridin-2-yl)benzyl)benzamide], the concentration for half-maximal inhibition (IC50) at recombinant human ALDH-3, at MAO-A and on MAO-B was more than 10 µM in each case. In the data set on HepaRG spheroids, the “Ratio MEC to ALDH2” value came to 133. Moreover, the “HepaRG 3D Spheroid MEC” value in the data set on HepaRG spheroids worked out at 10.4 µM.

In the case of `O=C(NCc1ccc(-c2cccc(=O)[nH]2)cc1)c1ccccc1Cl` [(1b), 2-Chloro-N-(4-(6-oxo-1,6-dihydropyridin-2-yl)benzyl)benzamide], the IC50 on recombinant human ALDH-3, at MAO-A and at MAO-B was more than 10 µM throughout. Also, the “Ratio MEC to ALDH2” value with HepaRG spheroids is recorded as more than 730. Further, the “HepaRG 3D Spheroid MEC” value in the data set with HepaRG spheroids is “No Effect”.

For `Cc1nccc(Cl)c1C(=O)NCc1ccc(-c2cccc(=O)[nH]2)cc1` [(1c), 4-Chloro-2-methyl-N-(4-(6-oxo-1,6-dihydropyridin-2-yl)benzyl)nicotinamide], the IC50 at recombinant human ALDH-3, at MAO-A and on MAO-B was more than 10 µM in each case. For the same molecule, the “Ratio MEC to ALDH2” value in the data set with HepaRG spheroids was determined as 90. In addition, the “HepaRG 3D Spheroid MEC” value in the data set on HepaRG spheroids is 11.5 µM.

Regarding `Cc1nccc(Br)c1C(=O)NCc1ccc(-c2[nH]c(=O)ccc2F)cc1` [(1g), 4-Bromo-N-(4-(3-fluoro-6-oxo-1,6-dihydropyridin-2-yl)benzyl)-2-methylnicotinamide], the IC50 on recombinant human ALDH-3, on MAO-A and at MAO-B was more than 10 µM each time. The “Ratio MEC to ALDH2” value with HepaRG spheroids is given as 1668. The “HepaRG 3D Spheroid MEC” value in the data set with HepaRG spheroids turned out to be 46.7 µM.

For the molecule `Cc1cccc(Cl)c1C(=O)NCc1ccc(-c2cccc(=O)[nH]2)nc1` [(1k), 2-Chloro-6-methyl-N-((6′-oxo-1′,6′-dihydro-[2,2′-bipyridin]-5-yl)methyl)benzamide], the 50% inhibitory concentration (IC50) at recombinant human ALDH-3, on MAO-A and on MAO-B was more than 10 µM throughout. Besides, the “Ratio MEC to ALDH2” value in the data set on HepaRG spheroids turned out to be 2100. The “HepaRG 3D Spheroid MEC” value in the data set on HepaRG spheroids is 21.0 µM.

In the case of `O=C(NCc1ccc(-c2cccc(=O)[nH]2)nc1)c1ccccc1Cl` [(1l), 2-chloro-N-((6′-oxo-1′,6′-dihydro-[2,2′-bipyridin]-5-yl)methyl)benzamide], the half-inhibitory concentration (IC50) at recombinant human ALDH-3, on MAO-A and at MAO-B was more than 10 µM throughout. In addition, the “Ratio MEC to ALDH2” value in the data set with HepaRG spheroids was 50. In the data set with HepaRG spheroids, the “HepaRG 3D Spheroid MEC” value was determined as 5.95 µM.

Broadly, the IC50 is the point on the concentration scale where inhibition reaches its midpoint.
